One assay deals with T1, h5-HT2C receptor (Homo sapiens, UniProt P28335).
T1 construct: expressed in transfected cells; host or cells: HEK 293 cells (membrane preparations)
T1 sequence (P28335 33-458): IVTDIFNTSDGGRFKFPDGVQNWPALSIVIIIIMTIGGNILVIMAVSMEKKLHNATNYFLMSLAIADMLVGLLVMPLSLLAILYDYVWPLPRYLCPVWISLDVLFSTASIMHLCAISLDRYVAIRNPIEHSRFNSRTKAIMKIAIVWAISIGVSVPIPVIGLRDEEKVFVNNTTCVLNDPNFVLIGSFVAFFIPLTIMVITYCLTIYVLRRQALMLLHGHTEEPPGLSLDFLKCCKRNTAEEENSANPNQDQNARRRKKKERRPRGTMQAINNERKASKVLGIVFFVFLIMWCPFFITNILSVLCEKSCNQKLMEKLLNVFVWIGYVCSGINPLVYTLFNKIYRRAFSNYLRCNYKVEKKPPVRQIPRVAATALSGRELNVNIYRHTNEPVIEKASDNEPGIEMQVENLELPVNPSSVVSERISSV
The assay is described as follows: biochemical. It is filed as binding. The note with it: for Ki: [3H]mesulergine, mean ± SD, read-out: h5-HT2C Receptor binding Ki ± SD.

The target in another assay is T2, hα2A adrenergic receptor (Homo sapiens, UniProt P08913).
T2 construct: expressed in transfected cells; host or cells: Chinese hamster lung cells (membrane preparations)
T2 sequence (P08913 1-465): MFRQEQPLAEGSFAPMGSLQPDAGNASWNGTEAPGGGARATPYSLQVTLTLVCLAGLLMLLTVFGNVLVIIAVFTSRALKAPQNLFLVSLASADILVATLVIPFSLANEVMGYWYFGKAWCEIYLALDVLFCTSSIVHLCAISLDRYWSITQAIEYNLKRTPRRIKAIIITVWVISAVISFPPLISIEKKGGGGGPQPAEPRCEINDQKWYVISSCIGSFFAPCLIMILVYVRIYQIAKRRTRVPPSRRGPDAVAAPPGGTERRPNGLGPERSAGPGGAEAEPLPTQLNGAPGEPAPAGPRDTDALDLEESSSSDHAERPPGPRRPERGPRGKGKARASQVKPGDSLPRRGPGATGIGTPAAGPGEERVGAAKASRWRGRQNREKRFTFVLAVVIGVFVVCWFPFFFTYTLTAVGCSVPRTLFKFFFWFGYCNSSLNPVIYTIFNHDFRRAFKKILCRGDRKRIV
Briefly: Radioligand binding at hα2A adrenergic receptor ([3H]rauwolscine).

The next assay concerns the target T3, hα1A adrenergic receptor (Homo sapiens, UniProt P35348).
T3 construct: expressed in transfected cells; host or cells: Chinese hamster ovary cells (membrane preparations)
T3 sequence (P35348 1-466): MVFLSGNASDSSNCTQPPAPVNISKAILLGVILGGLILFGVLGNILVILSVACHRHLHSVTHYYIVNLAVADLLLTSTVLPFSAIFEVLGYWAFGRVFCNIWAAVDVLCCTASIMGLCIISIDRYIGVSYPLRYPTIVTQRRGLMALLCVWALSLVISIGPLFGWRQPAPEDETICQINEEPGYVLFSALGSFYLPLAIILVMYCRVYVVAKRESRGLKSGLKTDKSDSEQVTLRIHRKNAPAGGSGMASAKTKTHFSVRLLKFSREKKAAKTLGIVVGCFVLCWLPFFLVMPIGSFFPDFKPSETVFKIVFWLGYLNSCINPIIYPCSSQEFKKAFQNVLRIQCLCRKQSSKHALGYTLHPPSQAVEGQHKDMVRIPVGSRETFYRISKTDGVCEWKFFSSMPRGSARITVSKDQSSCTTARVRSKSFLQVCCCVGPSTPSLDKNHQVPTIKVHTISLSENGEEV
The assay is described as follows: Radioligand binding at hα1A adrenergic receptor ([3H]prazosin). Particulars: mean ± SD.

The next assay concerns the target T4, rat TAAR1 (Rattus norvegicus, UniProt Q923Y9).
T4 construct: expressed in transfected cells; host or cells: HEK 293 cells (membrane preparations)
Briefly: Radioligand binding at rat TAAR1 ([3H]RO5166017).

In a further assay the target is T5, mouse TAAR1 (Mus musculus, UniProt Q923Y8).
T5 construct: expressed in transfected cells; host or cells: HEK 293 cells (membrane preparations)
The assay is described as follows: Radioligand binding at mouse TAAR1 ([3H]RO5166017).

For another assay, the target named is T6, human TAAR1 (Homo sapiens, UniProt Q96RJ0).
T6 construct: expressed in transfected cells; host or cells: HEK 293 cells
T6 sequence (Q96RJ0 1-339): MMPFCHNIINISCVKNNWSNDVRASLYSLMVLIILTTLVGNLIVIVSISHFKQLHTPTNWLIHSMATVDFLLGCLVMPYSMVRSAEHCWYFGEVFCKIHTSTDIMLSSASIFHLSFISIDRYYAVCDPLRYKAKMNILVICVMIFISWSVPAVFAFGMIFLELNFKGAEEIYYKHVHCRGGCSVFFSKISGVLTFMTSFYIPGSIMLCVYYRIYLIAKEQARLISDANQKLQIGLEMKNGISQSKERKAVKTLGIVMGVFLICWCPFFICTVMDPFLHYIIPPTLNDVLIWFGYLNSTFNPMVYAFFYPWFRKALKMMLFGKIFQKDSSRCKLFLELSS
Briefly: Activity at the human TAAR1 (cAMP assay, HEK 293 cells). The class given is cell-based. As to the method:
Once 80–90% confluency was reached, the cells were collected by removing the medium, washing with PBS and then adding 5 ml of trypsin/EDTA solution for 5 min at 37°C. Next, 45 ml of medium was added and the entire mixture was transferred into a falcon tube. The tube was then centrifuged at room temperature for 3 min at 900 revolutions per minute (rpm). Next, the supernatant was removed in order to resuspend the remaining cell pellet in fresh medium to 5 × 10^5 cells/ml. Hundred microliter of the cells was transferred into a 96-well plate ([…]; BIOCOAT 6640, Becton Dickinson, Allschwil, Switzerland) and incubated for 20 h at 37°C.
For the cAMP assay, the aspirated medium was replaced with 50 μl PBS without Ca^2+ and Mg^2+ ions. Using snap inversion, the PBS was extracted and the plate was gently tapped against tissue. Next, 90 μl of Krebs-Ringer Bicarbonate buffer (KRB, Sigma-Aldrich) containing 1 mM IBMX was added and incubated for 60 min at 37°C and 5% CO2/95% air. Each test compound was examined in duplicate in a concentration range between 300 pM and 30 μM. A standard curve with a range of cAMP concentrations (0.13 nM–10 μM) was created for each 96-well plate. Each experiment was accompanied with a reference plate that included RO5256390, β-phenylethylamine and p-tyramine. The cells were exposed to either 30 μl of compound solution, 30 μl of β-phenylethylamine (as maximal response), or a basal control in PBS (containing 1 mM IBMX) for 40 min at 37°C. Next, under forceful shaking using black lids, the cells were exposed to 50 μl of 3× detection mix solution (composed of Ru-cAMP Alexa700 anti-cAMP antibody and lysis buffer) for 120 min at room temperature. Using the NanoScan reader (Innovate Optische Messtechnik, Berlin, Germany; 456 nm excitation wavelength; 630 and 700 nm emission wavelengths), the fluorescence was examined and the FRET signal was determined using the following equation; FRET (700 nm)- P × FRET (630 nm), where P = Ru (700 nm)/Ru (630 nm).
(Cyclic AMP is a second messenger, typically raised through Gs and lowered through Gi signalling.)

A further assay concerns the target human 5-HT2A receptor (Homo sapiens, UniProt P28223). The note with it: for Emax: NIH3T3, read-out: h5-HT2A Activation efficacy max ± SD, relative to 5-HT = 100%.

T5 sequence (Q923Y8 whole entry): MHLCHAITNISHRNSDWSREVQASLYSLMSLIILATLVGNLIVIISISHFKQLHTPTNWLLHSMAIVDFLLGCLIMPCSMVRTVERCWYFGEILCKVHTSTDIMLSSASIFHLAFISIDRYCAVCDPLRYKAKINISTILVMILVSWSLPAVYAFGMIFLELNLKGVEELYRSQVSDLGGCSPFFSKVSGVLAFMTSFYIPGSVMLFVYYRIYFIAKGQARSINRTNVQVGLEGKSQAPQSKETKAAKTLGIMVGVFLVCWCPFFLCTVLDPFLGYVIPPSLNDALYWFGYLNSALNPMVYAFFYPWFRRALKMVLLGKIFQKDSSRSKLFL
Sequence of human 5-HT2A receptor (P28223 whole entry): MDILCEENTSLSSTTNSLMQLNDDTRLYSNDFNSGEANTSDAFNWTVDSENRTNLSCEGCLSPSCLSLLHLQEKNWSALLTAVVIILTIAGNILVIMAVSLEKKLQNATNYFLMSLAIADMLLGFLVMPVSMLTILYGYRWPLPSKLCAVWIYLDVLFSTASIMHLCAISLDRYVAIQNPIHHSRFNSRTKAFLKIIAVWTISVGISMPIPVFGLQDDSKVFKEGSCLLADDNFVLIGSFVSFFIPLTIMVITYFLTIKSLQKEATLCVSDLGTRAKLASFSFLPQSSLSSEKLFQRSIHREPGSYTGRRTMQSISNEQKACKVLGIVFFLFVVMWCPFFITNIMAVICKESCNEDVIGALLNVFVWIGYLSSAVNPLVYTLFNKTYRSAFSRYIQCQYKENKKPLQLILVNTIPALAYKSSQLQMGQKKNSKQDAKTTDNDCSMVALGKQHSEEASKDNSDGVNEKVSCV
T4 sequence (Q923Y9 whole entry): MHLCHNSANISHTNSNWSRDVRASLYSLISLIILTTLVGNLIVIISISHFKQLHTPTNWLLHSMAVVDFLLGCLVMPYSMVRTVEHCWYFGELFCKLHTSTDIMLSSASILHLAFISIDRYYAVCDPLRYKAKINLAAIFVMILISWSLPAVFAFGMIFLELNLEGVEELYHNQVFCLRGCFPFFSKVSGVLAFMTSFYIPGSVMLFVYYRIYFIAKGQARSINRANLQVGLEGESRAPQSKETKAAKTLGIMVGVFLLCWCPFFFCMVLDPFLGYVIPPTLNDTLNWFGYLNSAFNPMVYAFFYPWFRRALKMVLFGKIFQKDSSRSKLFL

By Ki is commonly meant the dissociation constant of the complex between target and ligand, obtained from inhibition or displacement. By EC50 is commonly meant the concentration at which the effect is half-maximal. Take `COc1cc(CCN)cc(OC)c1OC(F)(F)F` [compound 13, 4-trifluoromethoxy-3,5-dimethoxyphenethylamine]: the “Higher affinity at the 5-HT2C receptor than mescaline (5)” value (shortened to “Higher affinity”) at h5-HT2C receptor is 19- to 34 fold. Also, the Ki on h5-HT2C receptor came to 290 ± 100 nM; on hα2A adrenergic receptor, 450 ± 60 nM; on hα1A adrenergic receptor, 3200 nM; at rat TAAR1, 170 ± 10 nM; on mouse TAAR1, 1900 nM. Further, the EC50 is greater than 10000 nM on human TAAR1 and 280 ± 120 nM on human 5-HT2A receptor.
With `COc1cc(CC(C)N)cc(OC)c1OC(F)F` (centres unmarked) [compound 14, 4-difluoromethoxy-3,5-dimethoxyamphetamine], the Ki was 3700 nM on h5-HT2C receptor; 2600 nM at hα2A adrenergic receptor; greater than 8700 nM at hα1A adrenergic receptor; 380 ± 20 nM on rat TAAR1; 1000 nM at mouse TAAR1. The EC50 on human TAAR1 was greater than 10000 nM; on human 5-HT2A receptor, 76 ± 40 nM.
For `COc1cc(CCN)cc(OC)c1OCC(F)(F)F` [compound 18, 3,5-dimethoxy-4-(2,2,2-trifluoroethoxy)phenethylamine], the Ki at h5-HT2C receptor was 1200 nM; on hα2A adrenergic receptor, 2300 nM; on hα1A adrenergic receptor, greater than 8700 nM; on rat TAAR1, 1200 nM; on mouse TAAR1, greater than 4200 nM. Besides, the half-maximal effective concentration (EC50) was greater than 10000 nM at human TAAR1 and 960 ± 50 nM at human 5-HT2A receptor. Besides, the Emax at human 5-HT2A receptor fell in the range of 44 to 78%.
Consider `COc1cc(CCN)cc(OC)c1OC(CF)CF` [compound 23, 3,5-dimethoxy-4-(1,3-difluoroprop-2-yloxy)phenethylamine], for which the Ki was greater than 10000 nM at h5-HT2C receptor; 2700 nM on hα2A adrenergic receptor; greater than 8700 nM on hα1A adrenergic receptor; greater than 4700 nM on rat TAAR1; greater than 4200 nM at mouse TAAR1. On human TAAR1, this compound registered an EC50 greater than 10000 nM.
Consider `COc1cc(CCN)cc(OC)c1OCCCF` [compound 25, 3,5-dimethoxy-4-(3-fluoropropoxy)-phenethylamine], for which the Ki on h5-HT2C receptor was 5300 nM; on hα2A adrenergic receptor, 2900 nM; on hα1A adrenergic receptor, greater than 8700 nM; on rat TAAR1, 1700 nM; at mouse TAAR1, greater than 4200 nM. Further, the EC50 on human TAAR1 was greater than 10000 nM; on human 5-HT2A receptor, 4500 nM. Besides, the Emax at human 5-HT2A receptor is 85 to 94%.
As to `COc1cc(CCN)cc(OC)c1OCCC(F)(F)F` [compound 26, 3,5-dimethoxy-4-(3,3,3-trifluoropropoxy)phenethylamine], the Ki at h5-HT2C receptor is 5300 nM; at hα2A adrenergic receptor, 2300 nM; on hα1A adrenergic receptor it was greater than 8700 nM; at rat TAAR1, 910 ± 90 nM; on mouse TAAR1, greater than 4200 nM. The EC50 on human TAAR1 was greater than 10000 nM; at human 5-HT2A receptor, 4900 nM.
With `CCCOc1c(OC)cc(CC(C)N)cc1OC` (centres unmarked) [compound 28, 3,5-dimethoxy-4-propyloxyamphetamine], the Ki at h5-HT2C receptor is 2000 nM; on hα2A adrenergic receptor, 4600 nM; on hα1A adrenergic receptor, greater than 8700 nM; at rat TAAR1, 3400 nM; at mouse TAAR1, 1800 nM. Moreover, the EC50 is greater than 10000 nM on human TAAR1 and 160 ± 20 nM at human 5-HT2A receptor. The Emax on human 5-HT2A receptor was in the range of 86 to 102%.
As to `COc1cc(CCN)cc(OC)c1OC1CC1` [compound 29, 4-cyclopropyloxy-3,5-dimethoxyphenethylamine], the Ki on h5-HT2C receptor was 5600 nM; at hα2A adrenergic receptor, 1200 nM; on hα1A adrenergic receptor, greater than 8700 nM; on rat TAAR1, 1200 nM; at mouse TAAR1, greater than 4200 nM. Moreover, the figures for the EC50 on human TAAR1 and on human 5-HT2A receptor were greater than 10000 nM and 2600 nM, respectively. Besides, the Emax on human 5-HT2A receptor lay in the range of 85 to 94%.
For the compound `C=C(C)COc1c(OC)cc(CCN)cc1OC` [compound 32, 3,5-dimethoxy-4-methallyloxyphenethylamine], the “Higher affinity” value at h5-HT2C receptor is 19- to 34 fold. Further, the Ki is 520 ± 150 nM on h5-HT2C receptor; 1500 nM at hα2A adrenergic receptor; greater than 8700 nM at hα1A adrenergic receptor; 1000 nM at rat TAAR1; 3900 nM at mouse TAAR1. Moreover, the EC50 at human TAAR1 is greater than 10000 nM; on human 5-HT2A receptor, 79 ± 12 nM. The Emax at human 5-HT2A receptor was in the range of 85 to 94%.
As for `COc1cc(CCN)cc(OC)c1OCc1ccccc1` [compound 33, 4-benzyloxy-3,5-dimethoxyphenethylamine], on h5-HT2C receptor, the “Higher affinity” value is given as 19- to 34 fold. Moreover, the Ki on h5-HT2C receptor was 440 ± 120 nM; at hα2A adrenergic receptor it was 2300 nM; on hα1A adrenergic receptor, greater than 8700 nM; on rat TAAR1, 110 ± 10 nM; on mouse TAAR1 it was 2400 nM. The EC50 at human TAAR1 was greater than 10000 nM; on human 5-HT2A receptor, 27 ± 8 nM.

These data come from article PMC8865417, “Receptor Interaction Profiles of 4-Alkoxy-3,5-Dimethoxy-Phenethylamines (Mescaline Derivatives) and Related Amphetamines” (Frontiers in Pharmacology, 2022).
